Values belong to the compound of their own block, whether it stands above or below them. Activity calls are given as the source filed them. The rule behind the calls is not given here.
Columns and labels:
Bos taurus [1] = species on record: Bos taurus; assay: Neutralization of nadroparin calcium in bovine plasma at 10 to 60 ug/ml by aPTT assay; format: cell-free; conditions: dose 10-60 µg/ml
Homo sapiens [2] = species on record: Homo sapiens; assay: Neutralization of unfractionated heparin in human poor platelet plasma at 10 to 50 ug/ml by aPTT assay relative to control; format: cell-free; conditions: dose 10-50 µg/ml
Bos taurus [3] = species on record: Bos taurus; assay: Neutralization of enoxaparin sodium in bovine plasma at 10 to 60 ug/ml by aPTT assay relative to control; format: cell-free; conditions: dose 10-60 µg/ml
[4] = Acute toxicity in iv dosed ICR mouse assessed as maximum tolerated dose measured after 7 days; format: organism-based; conditions: in vivo, time 7 day
Bos taurus [5] = species on record: Bos taurus; assay: Neutralization of dalteparin sodium in bovine plasma at 10 to 60 ug/ml by aPTT assay relative to control; format: cell-free; conditions: dose 10-60 µg/ml
Bos taurus [6] = species on record: Bos taurus; assay: Neutralization of unfractionated heparin in bovine plasma at 10 to 60 ug/ml by aPTT assay relative to control; format: cell-free; conditions: dose 10-60 µg/ml
Homo sapiens [7] = species on record: Homo sapiens; assay: Neutralization of dalteparin sodium in human poor platelet plasma at 10 to 50 ug/ml by aPTT assay relative to control; format: cell-free; conditions: dose 10-50 µg/ml
Homo sapiens [8] = species on record: Homo sapiens; assay: Neutralization of enoxaparin sodium in human poor platelet plasma at 10 to 50 ug/ml by aPTT assay relative to control; format: cell-free; conditions: dose 10-50 µg/ml
Bos taurus [9] = species on record: Bos taurus; assay: Neutralization of enoxaparin sodium in bovine plasma at 10 to 60 ug/ml by aPTT assay; format: cell-free; conditions: dose 10-60 µg/ml
Bos taurus [10] = species on record: Bos taurus; assay: Neutralization of unfractionated heparin in bovine plasma at 10 to 60 ug/ml by aPTT assay; format: cell-free; conditions: dose 10-60 µg/ml
Bos taurus [11] = species on record: Bos taurus; assay: Neutralization of dalteparin sodium in bovine plasma at 10 to 60 ug/ml by aPTT assay; format: cell-free; conditions: dose 10-60 µg/ml
[12] = Binding affinity to enoxaparin sodium in saline at pH 7.4 assessed as change in enthalpy by ITC analysis
[13] = Binding affinity to unfractionated heparin in saline at pH 7.4 assessed as change in gibbs free energy by ITC analysis
[14] = Blood compatibility in bovine plasma assessed as activated partial thromboplastin time at <23 ug/ml by turbidimetry method; format: toxicity, cell-free, Bos taurus; conditions: cattle, dose < 23 µg/ml
[15] = Binding affinity to enoxaparin sodium in saline at pH 7.4 assessed as change in gibbs free energy by ITC analysis
[16] = Binding affinity to nadroparin calcium in saline at pH 7.4 assessed as change in entropy by ITC analysis
Homo sapiens [17] = species on record: Homo sapiens; assay: Neutralization of dalteparin sodium in human poor platelet plasma at 10 to 50 ug/ml by aPTT assay; format: cell-free; conditions: dose 10-50 µg/ml
[18] = Binding affinity to enoxaparin sodium in saline at pH 7.4 assessed as change in entropy by ITC analysis
[19] = Binding affinity to dalteparin sodium in saline at pH 7.4 assessed as change in entropy by ITC analysis
[20] = Binding affinity to unfractionated heparin in saline at pH 7.4 assessed as change in entropy by ITC analysis
[21] = Binding affinity to nadroparin calcium in saline at pH 7.4 assessed as change in gibbs free energy by ITC analysis
[22] = Binding affinity to unfractionated heparin in saline at pH 7.4 assessed as binding constant by ITC analysis
Erythrocyte [23] = assay: Hemolytic activity in Sprague-Dawley rat red blood cells at 256 ug/ml; format: toxicity, cell-based; conditions: dose 256 µg/ml
[24] = Binding affinity to dalteparin sodium in saline at pH 7.4 assessed as binding constant by ITC analysis
[25] = Binding affinity to unfractionated heparin in saline at pH 7.4 assessed as change in enthalpy by ITC analysis
[26] = Binding affinity to dalteparin sodium in saline at pH 7.4 assessed as change in gibbs free energy by ITC analysis
[27] = Binding affinity to dalteparin sodium in saline at pH 7.4 assessed as change in enthalpy by ITC analysis
[28] = Binding affinity to nadroparin calcium in saline at pH 7.4 assessed as change in enthalpy by ITC analysis
Erythrocyte [29] = assay: Hemolytic activity in human red blood cells at 256 ug/ml; format: toxicity, cell-based; conditions: dose 256 µg/ml
[30] = Binding affinity to enoxaparin sodium in saline at pH 7.4 assessed as binding constant by ITC analysis
[31] = Binding affinity to nadroparin calcium in saline at pH 7.4 assessed as binding constant by ITC analysis
Bos taurus [32] = species on record: Bos taurus; assay: Neutralization of nadroparin calcium in bovine plasma at 10 to 60 ug/ml by aPTT assay relative to control; format: cell-free; conditions: dose 10-60 µg/ml
[33] = Blood compatibility in bovine plasma assessed as activated partial thromboplastin time at <54 ug/ml by turbidimetry method; format: toxicity, cell-free, Bos taurus; conditions: cattle, dose < 54 µg/ml
Erythrocyte [34] = assay: Hemolytic activity in human red blood cells at 512 ug/ml; format: toxicity, cell-based; conditions: dose 512 µg/ml
Homo sapiens [35] = species on record: Homo sapiens; assay: Neutralization of enoxaparin sodium in human poor platelet plasma at 10 to 50 ug/ml by aPTT assay; format: cell-free; conditions: dose 10-50 µg/ml
Homo sapiens [36] = species on record: Homo sapiens; assay: Reversal of anticoagulation of nadroparin calcium in human whole blood assessed as minimum effective dose incubated for 5 mins by thromboelastography; format: tissue-based
Erythrocyte [37] = assay: Hemolytic activity in Sprague-Dawley rat red blood cells at 512 ug/ml; format: toxicity, cell-based; conditions: dose 512 µg/ml
Homo sapiens [38] = species on record: Homo sapiens; assay: Reversal of anticoagulation of enoxaparin sodium in human whole blood assessed as minimum effective dose incubated for 5 mins by thromboelastography; format: tissue-based
Homo sapiens [39] = species on record: Homo sapiens; assay: Reversal of anticoagulation of unfractionated heparin in human whole blood assessed as minimum effective dose incubated for 5 mins by thromboelastography; format: tissue-based
Homo sapiens [40] = species on record: Homo sapiens; assay: Reversal of anticoagulation of dalteparin sodium in human whole blood assessed as minimum effective dose incubated for 5 mins by thromboelastography; format: tissue-based

SMILES: NCC(=O)Nc1ccc(-c2cc[n+](Cc3ccc(C(c4ccc(C[n+]5ccc(-c6ccc(NC(=O)CN)cc6)cc5)cc4)(c4ccc(C[n+]5ccc(-c6ccc(NC(=O)CN)cc6)cc5)cc4)c4ccc(C[n+]5ccc(-c6ccc(NC(=O)CN)cc6)cc5)cc4)cc3)cc2)cc1.[Cl-].[Cl-].[Cl-].[Cl-]
Activity (Bos taurus [1]): Active
Activity (Homo sapiens [2]): > 98%
Activity (Bos taurus [3]): > 98%
MTD at 168 h [4]: 8 mg/kg
Activity (Bos taurus [5]): > 98%
Activity (Bos taurus [6]): > 98%
Activity (Homo sapiens [7]): > 98%
Activity (Homo sapiens [8]): > 98%
Activity (Bos taurus [9]): Active
Activity (Bos taurus [10]): Active
Activity (Bos taurus [11]): Active

Activity (Bos taurus [1]): inactive
Activity (Bos taurus [9]): inactive
Activity (Bos taurus [10]): inactive
Activity (Bos taurus [11]): inactive
SMILES: Cn1cc[n+](Cc2ccc(C(c3ccc(C[n+]4ccn(C)c4)cc3)(c3ccc(C[n+]4ccn(C)c4)cc3)c3ccc(C[n+]4ccn(C)c4)cc3)cc2)c1

SMILES: NCCSc1ccc(-c2cc[n+](Cc3ccc(C(c4ccc(C[n+]5ccc(-c6ccc(SCCN)cc6)cc5)cc4)(c4ccc(C[n+]5ccc(-c6ccc(SCCN)cc6)cc5)cc4)c4ccc(C[n+]5ccc(-c6ccc(SCCN)cc6)cc5)cc4)cc3)cc2)cc1.[Cl-].[Cl-].[Cl-].[Cl-]
Activity (Bos taurus [1]): Active
MTD at 168 h [4]: 8 mg/kg
Activity (Bos taurus [9]): Active
Activity (Bos taurus [10]): Active
Activity (Bos taurus [11]): Active

Activity (Bos taurus [1]): inactive
Activity (Bos taurus [9]): inactive
Activity (Bos taurus [10]): inactive
Activity (Bos taurus [11]): inactive
SMILES: COc1ccc(-c2cc[n+](Cc3ccc(C(c4ccc(C[n+]5ccc(-c6ccc(OC)cc6)cc5)cc4)(c4ccc(C[n+]5ccc(-c6ccc(OC)cc6)cc5)cc4)c4ccc(C[n+]5ccc(-c6ccc(OC)cc6)cc5)cc4)cc3)cc2)cc1

Activity (Bos taurus [1]): Active
Activity (Bos taurus [9]): Active
Activity (Bos taurus [10]): Active
Activity (Bos taurus [11]): Active
SMILES: NCCOc1ccc2c[n+](Cc3ccc(C(c4ccc(C[n+]5ccc6cc(OCCN)ccc6c5)cc4)(c4ccc(C[n+]5ccc6cc(OCCN)ccc6c5)cc4)c4ccc(C[n+]5ccc6cc(OCCN)ccc6c5)cc4)cc3)ccc2c1

SMILES: NCCOc1cc(-c2cc[n+](Cc3ccc(C(c4ccc(C[n+]5ccc(-c6cc(OCCN)c(OCCN)c(OCCN)c6)cc5)cc4)(c4ccc(C[n+]5ccc(-c6cc(OCCN)c(OCCN)c(OCCN)c6)cc5)cc4)c4ccc(C[n+]5ccc(-c6cc(OCCN)c(OCCN)c(OCCN)c6)cc5)cc4)cc3)cc2)cc(OCCN)c1OCCN.[Cl-].[Cl-].[Cl-].[Cl-]
deltaH [12]: -5.63 kcal/mol
deltaG [13]: -8.97 kcal/mol
APTT [14]: 23 s
MTD at 168 h [4]: 20 mg/kg
deltaG [15]: -9.12 kcal/mol
-TdeltaS [16]: -4.37 kcal/mol
Activity (Homo sapiens [17]): Active
-TdeltaS [18]: -3.49 kcal/mol
-TdeltaS [19]: -4.48 kcal/mol
-TdeltaS [20]: -3.64 kcal/mol
deltaG [21]: -9.19 kcal/mol
Ka [22]: 3.72e+06 M⁻¹
Activity (Erythrocyte [23]): Non-Toxic
Ka [24]: 7.09e+06 M⁻¹
deltaH [25]: -5.33 kcal/mol
deltaG [26]: -9.35 kcal/mol
deltaH [27]: -4.86 kcal/mol
deltaH [28]: -4.83 kcal/mol
Activity (Bos taurus [11]): Active
Activity (Erythrocyte [29]): Non-Toxic
Ka [30]: 4.85e+06 M⁻¹
Ka [31]: 5.43e+06 M⁻¹

Activity (Bos taurus [1]): inactive
Activity (Bos taurus [9]): inactive
Activity (Bos taurus [10]): inactive
Activity (Bos taurus [11]): inactive
SMILES: c1cc[n+](Cc2ccc(C(c3ccc(C[n+]4ccccc4)cc3)(c3ccc(C[n+]4ccccc4)cc3)c3ccc(C[n+]4ccccc4)cc3)cc2)cc1

SMILES: NCCCOc1ccc(-c2cc[n+](Cc3ccc(C(c4ccc(C[n+]5ccc(-c6ccc(OCCCN)cc6)cc5)cc4)(c4ccc(C[n+]5ccc(-c6ccc(OCCCN)cc6)cc5)cc4)c4ccc(C[n+]5ccc(-c6ccc(OCCCN)cc6)cc5)cc4)cc3)cc2)cc1.[Cl-].[Cl-].[Cl-].[Cl-]
Activity (Bos taurus [1]): Active
Activity (Homo sapiens [2]): > 98%
Activity (Bos taurus [3]): > 98%
Activity (Bos taurus [32]): > 86%
MTD at 168 h [4]: 15 mg/kg
Activity (Bos taurus [5]): > 98%
Activity (Bos taurus [6]): > 98%
Activity (Homo sapiens [7]): > 98%
Activity (Homo sapiens [8]): > 98%
Activity (Bos taurus [9]): Active
Activity (Bos taurus [10]): Active
Activity (Bos taurus [11]): Active

SMILES: NCCOc1ccc(-c2cc[n+](Cc3ccc(C(c4ccc(C[n+]5ccc(-c6ccc(OCCN)cc6)cc5)cc4)(c4ccc(C[n+]5ccc(-c6ccc(OCCN)cc6)cc5)cc4)c4ccc(C[n+]5ccc(-c6ccc(OCCN)cc6)cc5)cc4)cc3)cc2)cc1.[Cl-].[Cl-].[Cl-].[Cl-]
deltaH [12]: -5.87 kcal/mol
APTT [33]: 23 s
Activity (Erythrocyte [34]): Non-Toxic
deltaG [13]: -9.11 kcal/mol
Activity (Homo sapiens [35]): Active
MTD at 168 h [4]: 17.5 mg/kg
deltaG [15]: -9.09 kcal/mol
-TdeltaS [16]: -4.77 kcal/mol
-TdeltaS [18]: -3.23 kcal/mol
MED (Homo sapiens [36]): 10 µg/mL
-TdeltaS [19]: -4.94 kcal/mol
-TdeltaS [20]: -4.43 kcal/mol
deltaG [21]: -9.15 kcal/mol
Ka [22]: 4.72e+06 M⁻¹
Activity (Erythrocyte [37]): Non-Toxic
Ka [24]: 8.77e+06 M⁻¹
Activity (Bos taurus [9]): Active
deltaH [25]: -4.67 kcal/mol
MED (Homo sapiens [38]): 10 µg/mL
MED (Homo sapiens [39]): 12 µg/mL
deltaG [26]: -9.47 kcal/mol
deltaH [27]: -4.53 kcal/mol
MED (Homo sapiens [40]): 10 µg/mL
deltaH [28]: -4.38 kcal/mol
Ka [30]: 4.61e+06 M⁻¹
Ka [31]: 5e+06 M⁻¹

Activity (Bos taurus [1]): Active
Activity (Bos taurus [9]): Active
Activity (Bos taurus [10]): Active
Activity (Bos taurus [11]): Active
SMILES: NCCOc1ccc(-n2cc[n+](Cc3ccc(C(c4ccc(C[n+]5ccn(-c6ccc(OCCN)cc6)c5)cc4)(c4ccc(C[n+]5ccn(-c6ccc(OCCN)cc6)c5)cc4)c4ccc(C[n+]5ccn(-c6ccc(OCCN)cc6)c5)cc4)cc3)c2)cc1
